Data set [1] in a line: Antiplatelet activity in rabbit platelet rich plasma assessed as inhibition of ADP-induced platelet aggregation preincubated for 5 mins followed by ADP addition and measured after 5 mins by turbidimetric method. The data set is classed as functional, cell-based. The following applies: Oryctolagus cuniculus.
Data set [2] can be described thus: Antiplatelet activity in human platelet rich plasma assessed as inhibition of ADP-induced platelet aggregation at 10 uM preincubated for 2 mins followed by ADP addition by turbidimetric method relative to control. The data set is classed as functional. Also on record: scale not given: the % may be the effect or the level left.
The nature of data set [3]: Antiplatelet activity in human platelet rich plasma assessed as inhibition of thrombin-induced platelet aggregation at 3 uM preincubated for 2 mins followed by thrombin addition by turbidimetric method relative to control. Also on record: scale not given: the % may be the effect or the level left. The data set is classed as functional.
A short description of data set [4]: Antiplatelet activity in human platelet rich plasma assessed as inhibition of collagen-induced platelet aggregation at 3 uM preincubated for 2 mins followed by collagen addition by turbidimetric method relative to control. The data set is classed as functional. Also on record: scale not given: the % may be the effect or the level left.
Data set [5] is described as follows: Half life in human plasma. The data set is classed as ADME, cell-free.
Data set [6] deals with Homo sapiens. The data set can be described thus: Antiplatelet activity in human assessed as inhibition of ADP-induced platelet aggregation at 100 mg, po after 4 hrs. The data set is classed as functional. Also on record: scale not given: the % may be the effect or the level left.
The target of data set [7] is P2Y purinoceptor 12 (Homo sapiens, UniProt Q9H244). Put plainly: Displacement of [3H]2MeSADP from human P2Y12 preincubated for 5 mins followed by [3H]2MeSADP addition and measured after 15 mins by scintillation counting method. Background: Displacement assays read how much labelled ligand stays bound in the presence of the test substance.
Sequence of P2Y purinoceptor 12 (Q9H244 whole entry): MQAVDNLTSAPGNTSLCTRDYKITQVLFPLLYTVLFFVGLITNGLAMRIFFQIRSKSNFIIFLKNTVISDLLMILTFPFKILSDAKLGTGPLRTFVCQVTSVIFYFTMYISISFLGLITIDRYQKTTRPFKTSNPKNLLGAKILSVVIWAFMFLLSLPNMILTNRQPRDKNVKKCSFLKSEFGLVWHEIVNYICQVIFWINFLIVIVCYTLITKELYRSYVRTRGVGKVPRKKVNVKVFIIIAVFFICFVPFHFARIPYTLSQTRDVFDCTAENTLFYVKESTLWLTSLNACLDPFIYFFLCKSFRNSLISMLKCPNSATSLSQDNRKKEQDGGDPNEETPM
A short description of data set [8]: Antiplatelet activity in human platelet rich plasma assessed as inhibition of ADP-induced platelet aggregation. The data set is classed as functional, cell-based.

The structures appear in SMILES notation. pIC50: −log10 of the molar value.

As a reminder, the pIC50 is the negative decadic logarithm of the IC50, by convention in mol/L. For orientation: half-life means the time in which the quantity being followed falls by half.

For the compound `CC1CC(=O)NN=C1c1ccc(NC(=N)N)cc1` (stereo not drawn), the pIC50 in data set [1] is 6.71. Further, the figures for the Activity in data set [2], in data set [3] and in data set [4] were 95.09%, 100% and 100%, respectively.
With `CNc1cc2[nH]c(=O)n(-c3ccc(NC(=O)NS(=O)(=O)c4ccc(Cl)s4)cc3)c(=O)c2cc1F` [ELINOGREL], the half-life in data set [5] was 12 h. In addition, the Activity in data set [6] was determined as 60%. Besides, the negative logarithm of the IC50 (pIC50) in data set [7] is 7.30; in data set [8], 5.00.

The values are drawn from ChEMBL document CHEMBL5126507, “P2Y12 antagonists: Approved drugs, potential naturally isolated and synthesised compounds, and related in-silico studies” (Eur J Med Chem, 2022).
